The values below come from patent publication US6635662B2, “Radicicol derivatives” (Kyowa Hakko Kogyo Co., Ltd., priority 1996, dated 2003).

One assay relates to Erk2 phosphorylation. Briefly: Erk2 phosphorylation inhibition activity in KNRK 5.2 cells. It is filed as cell-based. Conditions: Rattus norvegicus, 40 hours, phosphorylated Erk2/total Erk2 ratio halved. As for the experimental part: (§1) Activated K-Ras gene-introduced rat kidney epithelial cell line KNRK 5.2 was cultured at 37° C. for 40 hours in an atmosphere of 5% carbon dioxide gas using Dulbecco's modified Eagle's medium (DMEM) which was supplemented with 10% fetal calf serum (FCS) and to which was added each radicicol derivative at respective test concentration. The resulting cells were lysed for 30 minutes at 4° C. in a cooled buffer for lysis use [50 mM HEPES NaOH, pH 7.4, 250 mM sodium chloride (NaCl), 1 mM ethylenediaminetetraacetic acid (EDTA), 1% Nonidet P-40 (NP40), 1 mM dithiothreitol (DTT), 1 mM phenylmethylsulfonyl fluoride (PMSF), 5 μg/ml leupeptin, 2 mM sodium orthovanadate (Na3VO4), 1 mM sodium fluoride (NaF), 10 mM β-glycerophosphate] and then centrifuged at 30,000 G for 10 minutes. The protein content of the thus prepared supernatant fluids was measured to prepare samples having the same protein quantity for each lane, and then separation of proteins was carried out by SDS-PAGE. The thus separated protein samples were transferred on a polyvinylidene difluoride (PVDF) membrane, and then anti-phosphorylation MAPK antibody (anti-phospho MAPK, manufactured by New England Biolabs), anti-Erk2 antibody (anti-Erk2, manufactured by Upstate Biotechnology) and anti-Raf-1 antibody (anti-Raf-1 (C-12), manufactured by Santa Cruz Biotechnology) were added thereto as primary antibodies and allowed to react with the proteins on the membrane. Thereafter, a horseradish peroxidase-labeled secondary antibody (anti-rabbit Ig antibody or anti-mouse Ig antibody, manufactured by Amersham) capable of reacting with respective primary antibodies was added thereto as the secondary antibody to carry out the reaction. Detection was carried out using ECL reagent (manufactured by Amersham), and the amount of phosphorylated Erk2 protein, total Erk2 protein and Raf-1 protein was determined by carrying out density scanning of the bands generated on the X-ray film. The Erk2 phosphorylation inhibition activity of radicicol derivatives is determined by calculating the ratio of phosphorylated Erk2 protein (phosphorylated Erk2 protein/total Erk2 protein) based on the results prepared from the samples of respective drug concentrations, which is expressed as the concentration of each derivative (IC50) by which the ratio becomes half in comparison with the case in which the drug is not added.

The next assay concerns Raf-1 protein. Briefly: Effect of decreasing intracellular Raf-1 protein quantity in KNRK 5.2 cells. It is filed as cell-based, rat. Conditions: 40 hours, Raf-1 protein/total Erk2 protein ratio halved, read-out: Raf-1 protein quantity decrease: IC50. As for the experimental part:
as §1

For assay [1], the system named is rat normal fibroblast cell line 3Y1-B. The experiment in a line: Growth inhibition test (MTT) on 3Y1-B. In kind it is cell-based. Conditions: 3Y1-B cells, 72 hours. Here is the method:
(§2) The cells were inoculated into a 96 well microplate (# 167008, manufactured by Nunc) in an amount of 1,000 cells per well and pre-cultured at 37° C. for 24 hours in a 5% carbon dioxide gas incubator using Dulbacco's modified Eagle's medium (DMEM) which had been supplemented with 10% fetal calf serum (FCS). Next, a DMSO solution of each test compound which had been adjusted to 10 mM was serially diluted with the culturing medium and add to the wells in 50 μl portions. Thereafter, the culturing was continued at 37° C. for 72 hours in the 5% carbon dioxide gas incubator. Five hours before completion of the culturing, 3-(4,5-dimethylthiazo-2-yl)-2,5-diphenyltetrazolium bromide (manufactured by Sigma, hereinafter referred to as “MTT”) which had been dissolved in the culturing medium to a final concentration of […] was dispensed into the wells in 50 μl portions. After completion of the culturing, DMSO was dispensed into the wells in […] portions, and the plate was vigorously stirred using a plate mixer to dissolve MTT-formazan crystals completely. Thereafter, absorbance at 550 nm was measured using a microplate reader MTP-32 (manufactured by Corona Denki). The cell growth inhibition activity was expressed by 50% inhibition concentration (IC50).

The subject of assay [2] is v-src oncogene transformed cell line SR-3Y1. Briefly: Growth inhibition test (MTT) on SR-3Y1. It is filed as cell-based. Conditions: Rattus norvegicus, SR3Y1, SR-3Y1 cells, 72 hours. Here is the method:
as §2

Assay [3] deals with human breast cancer MX-1 solid tumor. Briefly: Antitumor test on nude mouse-transplanted human breast cancer MX-1 solid tumor. In kind it is in vivo. Conditions: tumor volume ratio, 100 mg/kg per day i.v. once a day for 5 days, measured day 12 after administration. Here is the method:
From a tumor lump of a human breast cancer cell line MX-1 subcultured in nude mice (BALB/c nu/nu mice: CLEA Japan), a portion showing good growth was selected and cut into a 2 mm square fragment which was then transplanted under the abdominal side skin of each male nude mouse of 7 to 9 weeks of age using a trocar. The tumor size was measured on the 13th day after the tumor transplantation to select properly growing tumors having a tumor volume of 100 to 300 mm^3 (calculated by a calculation formula of “major axis×minor axis^2×½”), the mice were optionally grouped into 5 animals per group, and then each test compound which had been dissolved in a 7.5% cremohor EL (manufactured by Sigma)/5% dimethylacetamide (DMA)/87.5% physiological saline solution was administered to the mice by intravenous injection at a dosage of 0.05 ml (100 mg/kg) per day, once a day for 5 days. The antitumor activity of each test compound was expressed by a ratio (T/C) of the tumor volume (T) in the test drug-administered group to the tumor volume (C) in the control group on the 12th or 14th day after administration of the test compound.

Assay [4] deals with intracellular tyrosine kinase. The experiment in a line: Inhibition test of intracellular tyrosine kinase (tyrosine-phosphorylated protein, Western blot). Conditions: Rattus norvegicus, SR3Y1; SR-3Y1 cells, 15 hours culture, tyrosine-phosphorylated protein reduced to half vs control; read-out: Inhibitory activity of intracellular tyrosine kinase IC50. In kind it is cell-based. As for the experimental part: SR-3Y1 cells were cultured at 37° C. for 15 hours in an atmosphere of 5% carbon dioxide, using Dulbecco's modified Eagle's medium (DMEM) containing 10% fetal calf serum (FCS), to which each radicicol derivative to be tested had been added in varied concentration. The thus cultured cells were lysed at 4° C. for 20 minutes in a cooled buffer for lysis use (50 mM Tris HCl, pH 7.5, 150 mM sodium chloride (NaCl), 1% Triton X-100, 0.1% sodium dodecyl sulfate (SDS), 1% sodium deoxycholate, 2 mM ethylenediaminetetraacetic acid (EDTA), 1 mM phenylmethanesulfonyl fluoride (PMSF), 20 μM leupeptin, 0.15 unit/ml aprotinin, 1 mM sodium orthovanadate (Na3VO4) and then centrifuged at 20,000 G for 30 minutes. After measuring protein concentration in the resulting supernatant fluid, samples were adjusted to the same protein quantity per lane to carry out separation of protein by SDS-PAGE. […] Detection was carried out using ECL reagent (Amersham Co.), and the amount of tyrosine-phosphorylated protein was determined by scanning the density of bands prepared on an X-ray film. […]

For `CC1CC2OC2C=CC=CC(=NOCc2ccccc2S(=O)(=O)N(C)C)Cc2c(Cl)c(O)cc(O)c2C(=O)O1` (stereo not shown) [Compound 50], the half-inhibitory concentration (IC50) (usually the concentration that inhibits the measured activity by half) in the assay with Erk2 phosphorylation amounted to 350 nM; in the assay on Raf-1 protein, 340 nM; in assay [1], 120 nM; in assay [2], 21 nM.

As for `CC1CC2OC2C=CC=CC(=NOCc2cccnc2)Cc2c(Cl)c(O)cc(O)c2C(=O)O1` (stereo not shown) [Compound 53], the IC50 in the assay on Erk2 phosphorylation is 70 nM; with Raf-1 protein, 380 nM; in assay [1] it was 8 nM; in assay [2], < 4 nM. In addition, the “T/C (%)” value in assay [3] is 46%.

As to `CC1CC2OC2C=CC=CC(=NOCCCCN2CCOCC2)Cc2c(Cl)c(O)cc(O)c2C(=O)O1` (stereo not shown) [Compound 64], the IC50 with Erk2 phosphorylation was 110 nM; in the assay on Raf-1 protein, 190 nM.

With `CC1CC2OC2C=CC=CC(=NOCCN2CCCC2=O)Cc2c(Cl)c(O)cc(O)c2C(=O)O1` (stereo not shown) [Compound 69], the IC50 with Erk2 phosphorylation stood at 60 nM; with Raf-1 protein, 120 nM; in assay [1], 8 nM; in assay [2] it was 4 nM. For the same molecule, in assay [3], the “T/C (%)” value turned out to be 4%.

As for `CCOC(=O)ON=C1/C=C/C=C\C2OC2CC(C)OC(=O)c2c(O)cc(O)c(Cl)c2C1` (stereo not shown) [Compound 73], the IC50 in assay [4] worked out at 130 nM.

Take `CNC(=O)ON=C1/C=C/C=C\C2OC2CC(C)OC(=O)c2c(O)cc(O)c(Cl)c2C1` (stereo not shown) [Compound 74]: the IC50 in assay [1] was determined as 72 nM; in assay [2], 27 nM.

As for `C[C@@H]1C[C@H]2O[C@@H]2/C=C\C=C\C(=O)Cc2c(Cl)c(O)cc(O)c2C(=O)O1` [Radicicol, radicicol], the IC50 was 780 nM in assay [1], 42 nM in assay [2] and 370 nM in assay [4].
